Type in all cases: in vivo
For experiment [1], the system named is mustard, wild (wild mustard, Sinapis arvensis). Briefly: Test D pre-/postemergence: mustard, wild. An excerpt: (§1) Seeds of plant species selected from bluegrass (annual bluegrass, Poa annua), blackgrass (Alopecurus myosuroides), canarygrass (Phalaris minor), chickweed (common chickweed, Stellaria media), galium (catchweed bedstraw, Galium aparine), bromegrass, downy (downy bromegrass, Bromus tectorum), field poppy (Papaver rhoeas), field violet (Viola arvensis), foxtail, green (green foxtail, Setaria viridis), deadnettle (henbit deadnettle, Lamium amplexicaule), ryegrass, Italian (Italian ryegrass, Lolium multiflorum), kochia (Kochia scoparia), lambsquarters (Chenopodium album), oilseed rape (Brassica napus), pigweed (Amaranthus retroflexus), Russian thistle (Salsola iberica), chamomile (scentless chamomile, Matricaria inodora), speedwell (bird's-eye speedwell, Veronica persica), barley, spring (spring barley, Hordeum vulgare), wheat, spring (spring wheat, Triticum aestivum), buckwheat, wild (wild buckwheat, Polygonum convolvulus), mustard, wild (wild mustard, Sinapis arvensis), oat, wild (wild oat, Avena fatua), radish, wild (wild radish, Raphanus raphanistrum), windgrass (Apera spica-venti), barley, winter (winter barley, Hordeum vulgare), and wheat, winter (winter wheat, Triticum aestivum) were planted into a silt loam soil and treated preemergence with test chemicals formulated in a non-phytotoxic solvent mixture which included a surfactant. At the same time, these same crop and weed species were planted in pots containing the planting medium comprising spaghnum peat moss, vermiculite, wetting agent and starter nutrients and treated with postemergence applications of the test chemicals formulated in the same manner. Plants ranged in height from 2 to 18 cm (1- to 4-leaf stage).
(§2) Treated plants and controls were maintained in a controlled growth environment for 14 to 21 days after which time all species were compared to controls and visually evaluated. Plant response ratings, summarized in Table D, are based on a scale of 0 to 100 where 0 is no effect and 100 is complete control. A dash (-) response means no test result.

Experiment [2] deals with barley, spring (spring barley, Hordeum vulgare). As to the kind of experiment: Test D pre-/postemergence: barley, spring.
Excerpt: as §1, §2

The subject of experiment [3] is chamomile (scentless chamomile, Matricaria inodora). Briefly: Test D pre-/postemergence: chamomile.
Excerpt: as §1, §2

The mark [4] stands for this setting: Postemergence, 31 g ai/ha, scale 0 to 100 (0 no effect, 100 complete control).
Where [5] appears, read: Postemergence, 62 g ai/ha, scale 0 to 100 (0 no effect, 100 complete control).
The mark [6] stands for this setting: Postemergence, 125 g ai/ha, scale 0 to 100, 0 no effect, 100 complete control.
The mark [7] stands for this setting: Postemergence, 250 g ai/ha, scale 0 to 100 (0 no effect, 100 complete control).
[8] abbreviates: Postemergence, 16 g ai/ha, scale 0 to 100.
Where [9] appears, read: Preemergence, 31 g ai/ha, scale 0 to 100, 0 no effect, 100 complete control.
Setting [10] is: Preemergence, 62 g ai/ha, scale 0 to 100.
Setting [11] is: Preemergence, 125 g ai/ha, scale 0 to 100.
[12] abbreviates: Preemergence, 250 g ai/ha, scale 0 to 100.
Setting [13] is: Preemergence, 16 g ai/ha, scale 0 to 100, 0 no effect, 100 complete control.

With `Cc1nn(-c2ccc(C(F)(F)F)cn2)nc1Cc1cccc(C(F)(F)F)c1` [Compound 106], the “Plant response rating: Mustard, Wild” value in experiment [1] (setting [4]) turned out to be 80; in experiment [1] (setting [5]), 80; in experiment [1] (setting [6]) it was 90; in experiment [1] (setting [7]), 100. In addition, the “Plant response rating, Mustard, Wild” value in experiment [1] (setting [8]) is given as 20; in experiment [1] (setting [9]) it was 20; in experiment [1] (setting [10]) it was 50; in experiment [1] (setting [11]), 50; in experiment [1] (setting [12]), 60. The “Plant response rating: Barley, Spring” value is 10 in experiment [2] (setting [4]), 15 in experiment [2] (setting [5]), 20 in experiment [2] (setting [6]) and 30 in experiment [2] (setting [7]). In addition, the “Plant response rating, Barley, Spring” value in experiment [2] (setting [8]) was determined as 5; in experiment [2] (setting [9]), 0; in experiment [2] (setting [10]), 0; in experiment [2] (setting [11]) it was 0; in experiment [2] (setting [12]), 0. Further, the “Plant response rating: Chamomile” value in experiment [3] (setting [4]) stood at 0; in experiment [3] (setting [5]), 0; in experiment [3] (setting [6]) it was 0; in experiment [3] (setting [7]) it was 25. The “Plant response rating, Chamomile” value in experiment [3] (setting [8]) is 0.
For the compound `Cc1nn(-c2ccc(C(F)(F)F)cn2)nc1Oc1ccnc(C(F)(F)F)c1` [Compound 23], the “Plant response rating: Mustard, Wild” value in experiment [1] (setting [4]) was 40; in experiment [1] (setting [5]), 85; in experiment [1] (setting [6]), 100; in experiment [1] (setting [7]) it was 100. Moreover, in experiment [1] (setting [8]), the “Plant response rating, Mustard, Wild” value stood at 20. Besides, the “Plant response rating: Barley, Spring” value came to 0 in experiment [2] (setting [4]), 10 in experiment [2] (setting [5]), 10 in experiment [2] (setting [6]) and 15 in experiment [2] (setting [7]). Further, the “Plant response rating, Barley, Spring” value in experiment [2] (setting [8]) amounted to 0. For the same compound, the “Plant response rating: Chamomile” value in experiment [3] (setting [4]) was 0; in experiment [3] (setting [5]) it was 0; in experiment [3] (setting [6]), 0; in experiment [3] (setting [7]), 5. Besides, in experiment [3] (setting [8]), the “Plant response rating, Chamomile” value worked out at 0.
Turning to `Cc1nn(-c2ccc(F)c(C(F)(F)F)c2)nc1Cc1ccnc(C(F)(F)F)c1` [Compound 156], the “Plant response rating: Mustard, Wild” value in experiment [1] (setting [4]) turned out to be 95; in experiment [1] (setting [5]) it was 100; in experiment [1] (setting [6]), 100. The “Plant response rating, Mustard, Wild” value in experiment [1] (setting [8]) came out at 100; in experiment [1] (setting [13]), 10; in experiment [1] (setting [9]), 85; in experiment [1] (setting [10]), 95; in experiment [1] (setting [11]) it was 100. Besides, the “Plant response rating: Barley, Spring” value in experiment [2] (setting [4]) is listed as 20; in experiment [2] (setting [5]), 25; in experiment [2] (setting [6]), 30. The “Plant response rating, Barley, Spring” value came out at 15 in experiment [2] (setting [8]); 5 in experiment [2] (setting [13]); 5 in experiment [2] (setting [9]); 5 in experiment [2] (setting [10]); 15 in experiment [2] (setting [11]). In addition, the “Plant response rating: Chamomile” value in experiment [3] (setting [4]) came to 70; in experiment [3] (setting [5]) it was 75; in experiment [3] (setting [6]), 100. Further, the “Plant response rating, Chamomile” value worked out at 50 in experiment [3] (setting [8]); 10 in experiment [3] (setting [13]); 55 in experiment [3] (setting [9]); 100 in experiment [3] (setting [10]); 100 in experiment [3] (setting [11]).
For `FC(F)(F)COc1nn(-c2ccc(C(F)(F)F)cc2)nc1Cc1ccnc(C(F)(F)F)c1` [Compound 14, 4-[[5-(2,2,2-trifluoroethoxy)-2-[4-(trifluoromethyl)phenyl]-2H-1,2,3-triazol-4-yl]methyl]-2-(trifluoromethyl)pyridine], the “Plant response rating: Mustard, Wild” value in experiment [1] (setting [4]) is 50; in experiment [1] (setting [5]), 90; in experiment [1] (setting [6]) it was 100; in experiment [1] (setting [7]), 100. Moreover, the “Plant response rating, Mustard, Wild” value in experiment [1] (setting [9]) was 0; in experiment [1] (setting [10]) it was 50; in experiment [1] (setting [11]), 90; in experiment [1] (setting [12]) it was 95. The “Plant response rating: Barley, Spring” value in experiment [2] (setting [4]) turned out to be 25; in experiment [2] (setting [5]) it was 25; in experiment [2] (setting [6]), 30; in experiment [2] (setting [7]), 40. Besides, the “Plant response rating, Barley, Spring” value in experiment [2] (setting [9]) is recorded as 0; in experiment [2] (setting [10]), 10; in experiment [2] (setting [11]), 15; in experiment [2] (setting [12]) it was 20. Also, the “Plant response rating: Chamomile” value in experiment [3] (setting [4]) came to 20; in experiment [3] (setting [5]) it was 60; in experiment [3] (setting [6]) it was 100; in experiment [3] (setting [7]), 100.
On to `COc1nn(-c2ccc(C(F)(F)F)cc2)nc1Cc1ccnc(C(F)F)c1` [Compound 138], for which the “Plant response rating: Mustard, Wild” value was 90 in experiment [1] (setting [4]), 95 in experiment [1] (setting [5]), 100 in experiment [1] (setting [6]) and 100 in experiment [1] (setting [7]). In addition, the “Plant response rating, Mustard, Wild” value in experiment [1] (setting [8]) came out at 75. The “Plant response rating: Barley, Spring” value in experiment [2] (setting [4]) was determined as 20; in experiment [2] (setting [5]), 25; in experiment [2] (setting [6]) it was 35; in experiment [2] (setting [7]), 40. Further, in experiment [2] (setting [8]), the “Plant response rating, Barley, Spring” value was found to be 10. In addition, the “Plant response rating: Chamomile” value in experiment [3] (setting [4]) is recorded as 10; in experiment [3] (setting [5]) it was 30; in experiment [3] (setting [6]), 60; in experiment [3] (setting [7]), 80. Moreover, in experiment [3] (setting [8]), the “Plant response rating, Chamomile” value is reported as 0.
`COc1nn(-c2ccc(C(F)(F)F)cc2)nc1Cc1ccnc(C(F)(F)F)c1` [Compound 15, 4-[[5-methoxy-2-[4-(trifluoromethyl)phenyl]-2H-1,2,3-triazol-4-yl]methyl]-2-(trifluoromethyl)pyridine]: the “Plant response rating: Mustard, Wild” value in experiment [1] (setting [4]) is given as 70; in experiment [1] (setting [5]), 100; in experiment [1] (setting [6]), 100; in experiment [1] (setting [7]), 100. In addition, the “Plant response rating, Mustard, Wild” value in experiment [1] (setting [8]) amounted to 0; in experiment [1] (setting [9]), 100; in experiment [1] (setting [10]), 100; in experiment [1] (setting [11]), 100; in experiment [1] (setting [12]), 100. For the same compound, the “Plant response rating: Barley, Spring” value was determined as 15 in experiment [2] (setting [4]), 25 in experiment [2] (setting [5]), 30 in experiment [2] (setting [6]) and 40 in experiment [2] (setting [7]). The “Plant response rating, Barley, Spring” value in experiment [2] (setting [8]) is listed as 10; in experiment [2] (setting [9]), 0; in experiment [2] (setting [10]), 0; in experiment [2] (setting [11]), 10; in experiment [2] (setting [12]), 15. For the same compound, the “Plant response rating: Chamomile” value in experiment [3] (setting [4]) came out at 0; in experiment [3] (setting [5]) it was 0; in experiment [3] (setting [6]), 25; in experiment [3] (setting [7]), 100. Also, the “Plant response rating, Chamomile” value in experiment [3] (setting [8]) was 0.

For the origin of these results see patent US9302999B2, “Substituted triazoles as herbicides” (E. I. DU PONT DE NEMOURS AND COMPANY, priority 2012, dated 2016).
